Test results taken from patent publication US20090311176A1, “2-Arylpyrazolo[L,5-Alpha] Pyrimidin-3-YL Acetamide Derivatives as Ligands for Translocator Protein (18 Kda)” (The University of Sydney, priority 2006, published 2009).

Experiments:
TSPO [1] = test: In vivo [^18F]DPA-714 baboon PET studies (baseline, blocking, displacement); design: species or system Papio hamadryas baboon
Experimental: This dual modality device has a fully-3D PET scanner with 24 crystal rings and a dual slice CT scanner in the same gantry. It yields a reconstructed PET spatial resolution of 6.3 mm full width at half maximum (FWHM) at the centre of the field of view. The baboon was initially anaesthetized with ketamine (8 mg/kg, im). Anaesthesia was maintained with the use of an iv infusion of ketamine (Parnell Laboratory, Australia) in saline at a dose rate of 0.2 mg ketamine/kg/min. The baboon also received MgSO4 (2 mL iv) given over half an hour plus atropine (1 mg im) plus maxalon (5 mg im). The head of the baboon was immobilised with plastic tape to minimise motion artifacts. A CT scan of the head was completed prior to radioligand injection. Acquisition of the PET data in list mode was commenced just prior to radioligand injection and continued for a period of 60 min. […] At the conclusion of each study the list mode data were sorted into a dynamic scan comprising 54 frames (20×30 s, 30×60 s and 4×300 s). […] The radioligand uptake was converted to units of percent injected dose per volume of brain tissue (% dose/mL) and plotted against time.
Decay corrected time activity curves representing the variation in ligand concentration vs. time were constructed from selected slices for regions of interest over the thalamus, cerebellum, striaturn, cortex, skull and whole brain. After the list-mode acquisition, a whole body PET-CT scan was performed, 2 minutes at each of the six bed positions, to determine other sites of radioligand uptake.

[2] = In-vivo stability of [^18F]DPA-714 in rat plasma (TLC); details: 2 h post tracer injection
TSPO [3] = biological target: T1, TSPO (Rattus norvegicus, UniProt P16257); test: Ex vivo biodistribution of [^18F]DPA-714 in QA lesioned rats; details: pre-injection 15 min before radioligand; PK 11195 5 mg/kg, DPA-714 and DPA-713 1 mg/kg
T1 construct: from tissue; host or cells: living rat; peripheral tissues and brain regions
Experimental: Adult male Wistar rats weighing 300-320 g (Janvier, Le Genest-St-Isle, France) were used for ex vivo experiments.
Quinolonic acid (QA) lesions: Rats were anesthetised with isoflurane (4%, 500 mL/min), placed on a stereotaxic apparatus (Stoelting, Phymep, Paris, France) and were maintained under isoflurane 2% (500 mL/min) during surgery. The skull was exposed and small holes were made with use of a dental drill. […] A cannula (gauge 25, Hamilton, Massy, France) was inserted and a solution of QA (300 nmol in 2 μL phosphate buffer, pH 7.4) was infused at a flow rate of 0.5 μL/min. The syringe was left in place for 4 minutes before being removed to avoid backflow of QA. The bone was filled in with wax and the scalp was then sutured.
For peripheral tissue, results were expressed as the ratio (% ID/g tissue)/(% ID/g blood)±SEM. For brain, results were expressed as the ratio (% ID/g cerebral region)/(% ID/g cerebellum)±SEM. Student t test was performed when the number of data was ≧5. Statistic significance was considered for p<0.05.

[4] = Log D determined via HPLC; type: physicochemical
CBR = CBR binding with [^3H]Ro 15-1788, rat brain tissue; details: for affinity for the CBR (in words): [^3H]Ro 15-1788, rat brain tissue; for Ki: [^3H]Ro 15-1788 radioligand, rat brain tissue
[5] = biological target: T2, peripheral benzodiazepine receptor (PBR) (Rattus norvegicus, UniProt P16257); test: PET in rat model of HSV encephalitis; type: in vivo; details: olfactory and retrograde brain areas where HSV-1 accumulates
T2 construct: from tissue; host or cells: living rat (brain, PET and ex vivo biodistribution)
Text: Male Wistar rats were intranasally inoculated with the herpes simplex virus type-1(10^7 PFU in 1001 PBS) or PBS (control). Within a week following inoculation, replicating virus migrated into the brain and induced neuroinflammation.

Sprague-Dawley rat = test: Single intravenous dose toxicity study in the rat; type: in vivo
Experimental: The study involved 2 groups of […] SPF Sprague-Dawley rats (each of 5 males and 5 females), 7 weeks old and weighing between 193.1 g and 215 g for males and between 160.6 g and 180.1 g for females on the day of randomisation. Animals were purchased from Charles River Laboratories France (Domaine des Oncins—69592 L'Arbresle Cedex, France).
Animals were weighed on the day of randomisation, on D7, D14 and D15 (day of necropsy).
General observations were performed on D1, 60 minutes±30 minutes after dosing, again between 3 and 4 hours post-dose and then once a day for 14 days. Functional and neurobehavioural tests were also assessed on D1, 60 minutes±30 minutes after dosing and then on D7 and D 14. Mortality was recorded twice a day for 14 days. All animals surviving at the end of the 14-day period were submitted to gross necropsy.

Rat glioma C6 cells = test: Steroid biosynthesis (pregnenolone) assay in C6 cells; type: cell-based; details: 40 μM
Experimental: All compounds were used at the same concentration (40 μM); at the end of the incubation period (2 h), the amount of pregnenolone was quantified by radio immunoassay (RIA). The values are the mean of at least three determinations.
Rat glioma C6 cells were cultured in Dulbecco's modified Eagle's medium supplemented with 10% FBS, 2 mM L-glutamine, 100 units/mL penicillin and 100 μg/mL streptomycin. Cultures were maintained in a humidified atmosphere of 5% CO2/95% air at 37° C.
C6 cells were seeded in 24-well plates at a density of ˜1×10^6 cells/well in a final volume of 1 ml. Prior to measurement of pregnenolone production the cells were washed three times with a simple salts medium consisting of 140 mM NaCl, 5 mM KCl, 1.8 mM CaCl2, 1 mM MgSO4, 10 mM glucose, 10 mM HEPES/NaOH, pH 7.4, plus 0.1% BSA. During experiments, cells were incubated with this simple salts medium in an air incubator at 37° C. […] At the end of the incubation period (2 h) the cell medium was retained and centrifuged at 1500 g for 10 min. The amount of pregnenolone secreted into the medium was quantified by radio immunoassay (RIA), using an antibody obtained from ICN Biochemical Inc., Calif., USA, under the conditions recommended by the supplier.

[6] = system: peripheral benzodiazepine receptor; details: monkey occipital cortex, PET; cited from earlier work

## CCN(CC)C(=O)Cc1c(-c2ccc(OCC[18F])cc2)nn2c(C)cc(C)nc12 [[^18F]DPA-714]
TSPO [1]; baseline PET study
  uptake in the baboon skull: No uptake
TSPO [1]; baseline PET study, 100 MBq i.v., baboon
  blood brain barrier penetration / accumulation in the brain: capable of penetrating the blood brain barrier with considerable accumulation in the brain
TSPO [1]; baseline study, time activity curve
  time to maximum uptake in whole baboon brain: within ten minutes
TSPO [1]; whole body PET after brain imaging
  whole body uptake in the heart, adrenals and salivary glands: high uptake
[2]
  radioactivity in rat plasma consisting of the parent compound: 78±1%

## CCC(C)N(C)C(=O)c1cc2ccccc2c(-c2ccccc2Cl)n1 (stereo not drawn) [PK 11195]
TSPO [3]
  inhibition of [^18F]DPA-714 uptake in peripheral tissues by pre-treatment: significant inhibition of radioligand uptake in the heart, bone and liver but not in the adrenals and muscle
[4]
  chromatographic logD: 3.35
CBR
  affinity for the CBR (in words): negligible
  Ki: > 10000 nM

## CCC(C)N([11CH3])C(=O)c1cc2ccccc2c(-c2ccccc2Cl)n1 (stereo not drawn) [[^11C]PK11195]
[5]
  uptake in HSE rats versus control (in words): not significantly increased

## CCN(CC)C(=O)Cc1c(-c2ccc(OCCF)cc2)nn2c(C)cc(C)nc12 [DPA-714, N,N-Diethyl-2-{2-[4-(2-fluoro-ethoxy)-phenyl]-5,7-dimethyl-pyrazolo[1,5-a]pyrimidin-3-yl}-acetamide]
Sprague-Dawley rat; administered once i.v. at 5 mL/kg, batch No. 140306
  toxicity signs overall: did not induce any toxicity sign
Sprague-Dawley rat; rat, in vivo, iv
  LD50: higher than 5 mL/kg
TSPO [1]; cold DPA-714 1 mg/kg at 20 minutes post injection
  displacement of [^18F]DPA-714 from whole baboon brain: complete washout of the radioligand
TSPO [1]; cold DPA-714 at 20 minutes after radioligand, data not shown
  displacement of [^18F]DPA-714 binding in peripheral regions: complete displacement
Rat glioma C6 cells; 2 h, C6 glioma rat cells, RIA
  pregnenolone synthesis above baseline: 80%
Rat glioma C6 cells; same assay
  activity at stimulating neurosteroid synthesis compared with PK 11195: twice more active
[4]
  chromatographic logD: 2.44
CBR
  affinity for the CBR (in words): negligible
  Ki: > 10000 nM

## COc1ccc(O[11CH3])c(CN(C(C)=O)c2cc(F)ccc2Oc2ccccc2)c1 [[^11C]DAA1106]
[6]
  binding compared with [^11C](R)-PK 11195: four times greater

## CCN(CC)C(=O)Cc1c(-c2ccc(OC)cc2)nn2c(C)cc(C)nc12 [DPA-713, N,N-Diethyl-2-[2-(4-methoxy-phenyl)-5,7-dimethylpyrazolo[1,5-a]pyrimidin-3-yl]-acetamide]
Rat glioma C6 cells; 2 h, C6 glioma rat cells
  effect on steroidogenesis (in words): no effect
[4]
  chromatographic logD: 2.44
CBR
  affinity for the CBR (in words): negligible
  Ki: > 10000 nM
